Procedure: The present invention will next be described in detail by way of examples, which should not be construed as limiting the invention thereto. The percent degradation of diacetylspermine (%) in a sample was calculated on the basis of the amount of diacetylspermine as determined through ELISA. […] Subsequently, the pH of the mixture was adjusted with 50 mM phosphate buffer to 5.5, 6.0, 6.5, 7.0, 7.5, or 8.0. Thereafter, the reaction mixture was incubated at 37° C. for two hours. […] Subsequently, the ratio of the amount of diacetylspermine degraded through incubation to the initial amount of diacetylspermine was calculated.

- degradation of diacetylspermine (in words): prevented
SMILES: CC(=O)NCCCNCCCCNCCCNC(C)=O [diacetylspermine]

Source: patent US20090246880A1, “Method for preventing degradation of diacetylpolyamine” (priority 2008, published 2009)
